How the values were obtained:
[1] = test system: glucose production (Ra) and glucose disposal (Rd); assay: glucose turnover during infusion with D-3H-3-glucose in anaesthetized beagles, euglycaemia maintained; format: in vivo; conditions: mean±SEM
Experimental: Euglycaemia and glucose specific activity were maintained by variable infusion of D-glucose with D-^3H-3-glucose.
In each experiment insulin-like activity for Ra and Rd was calculated as the area between the basal values of each of these variables and subsequent values plotted graphically against time (AUC).

[2] = target: T1, thyroxine binding globulin (TBG) (Homo sapiens, UniProt P05543); assay: optical biosensor IAsys kinetic binding to immobilized TBG; conditions: control, 500 μg/ml
T1 sequence (P05543 21-415): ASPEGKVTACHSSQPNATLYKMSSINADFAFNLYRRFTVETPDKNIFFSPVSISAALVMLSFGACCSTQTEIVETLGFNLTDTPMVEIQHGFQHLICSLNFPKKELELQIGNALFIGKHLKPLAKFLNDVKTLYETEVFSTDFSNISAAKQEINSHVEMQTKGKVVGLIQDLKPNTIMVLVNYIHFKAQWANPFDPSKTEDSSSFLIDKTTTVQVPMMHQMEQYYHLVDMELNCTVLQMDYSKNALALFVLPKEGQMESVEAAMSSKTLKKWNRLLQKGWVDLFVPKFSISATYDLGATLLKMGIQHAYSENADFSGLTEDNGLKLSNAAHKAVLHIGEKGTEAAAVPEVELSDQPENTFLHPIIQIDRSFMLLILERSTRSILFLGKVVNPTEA
Experimental: The optical bio-sensor IAsys makes it possible to record biomolecular interactions in real time and thus kinetical studies.
The surface of the cuvette is covered with a carboxymethylated dextran matrix (CMD), to which the plasma protein TBG is immobilized.
Immobilization of TBG to the carboxymethylated matrix is detected via the change of the resonance angle.
For the kinetical studies the Thyroid-Insulin conjugate was injected into the microcuvette in dilution series of 200, 300, 400 and 500 μg/ml in HBS/Tween-buffer at 25° C. To test for reproducibility, all measurements were repeated 3 times.
As a control, native insulin was injected at high concentration (500 μg/ml). […] For further measurements the surface of the microcuvette was rinsed several times with buffer.
Determination of “on-rate” constants kon at various ligand concentrations CL allow kon to be plotted against CL according to equation (4). This gives the association rate constant kA from the slope and the dissociation rate constant kD at C2=O. It has, however, to be taken into account that the error of kD becomes too large when kD<0,01 s^−1 (IAsys, METHODS GUIDE).

[3] = test system: hepatic glucose output and peripheral uptake; conditions: British Diabetic Association conference 1989; cited from earlier work

Substance: insulin
- AUC for Ra (glucose production), area between basal and subsequent values against time [1]: -431 ± 121 mg/kg
- AUC for Rd (glucose disposal), area between basal and subsequent values against time [1]: 1142 ± 160 mg/kg

Substance: native insulin: native insulin injected at 500 μg/ml as control in the biosensor study
- association to immobilized TBG [2]: association cannot be observed

Substance: proinsulin: the zymogen which is cleaved to form the active hormone insulin
- hepatoselectivity (effect on hepatic glucose output versus peripheral uptake and utilisation) [3]: shows this hepatoslectivity to a smaller degree
